Here are results for 40 molecules from patent US20250059164A1, “IRAK DEGRADERS AND USES THEREOF” (Kymera Therapeutics, Inc., priority 2023, published 2025).

Molecules are shown by their SMILES.

In this test the target is T1, IRAK4 (Homo sapiens, UniProt Q9NWZ3).
T1 construct: endogenous in cells; host or cells: OCI-LY10
T1 sequence (Q9NWZ3 1-460): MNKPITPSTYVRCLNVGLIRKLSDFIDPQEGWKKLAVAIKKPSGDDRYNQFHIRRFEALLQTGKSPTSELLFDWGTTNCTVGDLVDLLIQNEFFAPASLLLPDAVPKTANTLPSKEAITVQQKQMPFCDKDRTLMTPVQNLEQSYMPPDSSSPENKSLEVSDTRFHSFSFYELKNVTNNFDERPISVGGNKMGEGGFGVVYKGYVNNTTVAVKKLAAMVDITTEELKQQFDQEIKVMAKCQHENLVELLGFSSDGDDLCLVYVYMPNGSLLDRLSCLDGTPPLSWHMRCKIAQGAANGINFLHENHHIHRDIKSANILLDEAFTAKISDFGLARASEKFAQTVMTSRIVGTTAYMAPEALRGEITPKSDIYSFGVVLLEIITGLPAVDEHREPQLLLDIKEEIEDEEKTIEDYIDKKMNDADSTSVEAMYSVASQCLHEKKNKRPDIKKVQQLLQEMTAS
Put plainly: IRAK4 MSD degradation in OCI-LY10. Type of test: cell-based. Particulars: OCI-LY10 cells, 24 hrs, Meso Scale Discovery. The essentials: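 OCI-LY10 cells treated 4 to 24 hours at 37° C. with 8-dose 1:3 series, top 1 to 10 μM. IRAK4 in lysates quantified by MSD sandwich immunoassay (mouse capture, rabbit detection, SULFO-TAG anti-rabbit). DC50 from three-parameter logistic fit.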
What is called DC50 is the concentration at which degradation of the target reaches its halfway point. `COc1cc2nn([C@H]3CC[C@H](CN4CCC5(CCN(c6cccc7c6c(C)nn7C6CCC(=O)NC6=O)CC5)C(F)(F)C4)CC3)cc2cc1NC(=O)c1cncc(C#N)c1` (stereo partly shown) [I-131] yielded a DC50 of 10 to 100 nM.

The molecule `CN(C[C@H]1CC[C@H](c2nc3cc(C(C)(C)O)c(NC(=O)c4cccc(C(F)(F)F)n4)cc3o2)CC1)[C@H]1CCN(c2cccc3c2n(C)c(=O)n3C2CCC(=O)NC2=O)C[C@@H]1F` (stereo partly shown) [I-138] showed a half-maximal degradation concentration (DC50) below 10 nM.

Consider `CN(C[C@H]1CC[C@H](c2nc3cc(C(C)(C)O)c(NC(=O)c4cccc(C(F)(F)F)n4)cc3o2)CC1)[C@@H]1CCN(c2cccc3c2n(C)c(=O)n3C2CCC(=O)NC2=O)C[C@@H]1F` (stereo partly shown) [I-139], for which the DC50 is below 10 nM.

For the molecule `COc1cc2nc([C@H]3CC[C@H](CN4CCC5(CCN(c6cccc7c6n(C)c(=O)n7C6CCC(=O)NC6=O)CC5)C(F)(F)C4)CC3)sc2cc1NC(=O)c1cncc(C#N)c1` (stereo partly shown) [I-150], the DC50 is above 200 nM.

As to `COc1cc2nn([C@H]3CC[C@H](CN4CCC5(CCN(c6cccc7c6n(C)c(=O)n7C6CCC(=O)NC6=O)CC5)C(F)(F)C4)CC3)cc2cc1NC(=O)c1cccc(C(F)(F)F)c1` (stereo partly shown) [I-151], the DC50 was 10 to 100 nM.

In turn, `COc1cc2nc(C3CCN(CC4(F)CCN(c5cccc6c5n(C)c(=O)n6C5CCC(=O)NC5=O)CC4)CC3)sc2cc1NC(=O)c1cncc(C#N)c1` (stereo not shown) [I-157] gave a DC50 above 200 nM.

Turning to `Cn1c(=O)n(C2CCC(=O)NC2=O)c2cccc(N3CCC4(CCN(C[C@H]5CC[C@H](n6cc7cc(NC(=O)c8cccc(C(F)(F)F)c8)ccc7n6)CC5)CC4(F)F)CC3)c21` (stereo partly shown) [I-158], the DC50 was in the range of 10 to 100 nM.

Take `Cn1c(=O)n(C2CCC(=O)NC2=O)c2cccc([C@@H]3CCN(C[C@H]4CC[C@H](n5cc6cc(NC(=O)c7cccnn7)ccc6n5)CC4)C[C@H]3F)c21` (stereo partly shown) [I-164]: the DC50 was in the range of 10 to 100 nM.

In the case of `Cn1c(=O)n(C2CCC(=O)NC2=O)c2cccc([C@@H]3CCN(C[C@H]4CC[C@H](n5cc6cc(NC(=O)c7coc(C(F)(F)F)n7)ccc6n5)CC4)C[C@H]3F)c21` (stereo partly shown) [I-165], the DC50 is below 10 nM.

Consider `COc1cc2nc([C@H]3CC[C@H](CN4CCC5(CCN(c6cccc7c6n(C)c(=O)n7C6CCC(=O)NC6=O)CC5)C(F)(F)C4)CC3)cn2cc1NC(=O)c1cncc(C#N)c1` (stereo partly shown) [I-168], for which the DC50 was above 200 nM.

The molecule `COc1cc2nc([C@H]3CC[C@H](CN4CC[C@@H](c5cccc6c5n(C)c(=O)n6C5CCC(=O)NC5=O)[C@H](F)C4)CC3)sc2cc1NC(=O)c1cncc(C(F)(F)F)n1` (stereo partly shown) [I-174] yielded a DC50 of 10 to 100 nM.

Take `Cc1nn(C2CCC(=O)NC2=O)c2cccc([C@@H]3CCN(C[C@H]4CC[C@H](n5cc6cc(NC(=O)c7cccc(C(F)(F)F)n7)ncc6n5)CC4)C[C@H]3F)c12` (stereo partly shown) [I-187]: the half-maximal degradation concentration (DC50) was in the range of 10 to 100 nM.

The molecule `COc1cc2nc([C@H]3CC[C@H](CN4CC[C@@H](c5cccc6c5n(C)c(=O)n6C5CCC(=O)NC5=O)[C@H](F)C4)CC3)cn2cc1NC(=O)c1cncc(C#N)c1` (stereo partly shown) [I-198] registered a DC50 above 200 nM.

Molecule `CN(C[C@H]1CC[C@H](n2cc(NC(=O)c3cnn4cccnc34)c(C(F)F)n2)CC1)[C@@H]1CCN(c2cccc3c2n(C)c(=O)n3C2CCC(=O)NC2=O)CC1(F)F` (stereo partly shown) [I-202] gave a DC50 of 10 to 100 nM.

The molecule `CN(C[C@H]1CC[C@H](n2cc(NC(=O)c3cnn4cccnc34)c(C(F)F)n2)CC1)[C@H]1CCN(c2cccc3c2n(C)c(=O)n3C2CCC(=O)NC2=O)CC1(F)F` (stereo partly shown) [I-203] displayed a DC50 of 10 to 100 nM.

Molecule `CN(C[C@H]1CC[C@H](c2nc3cc(C(C)(C)O)c(NC(=O)c4cccc(C(F)(F)F)n4)cc3s2)CC1)[C@H]1CCN(c2cccc3c2n(C)c(=O)n3C2CCC(=O)NC2=O)C[C@@H]1F` (stereo partly shown) [I-239] came in with a DC50 of 10 to 100 nM.

With `Cn1c(=O)n(C2CCC(=O)NC2=O)c2cccc(N3CC(OC[C@H]4CC[C@H](n5cc6cc(NC(=O)c7cccc(C(F)(F)F)n7)ccc6n5)CC4)C3)c21` (stereo partly shown) [I-242], the 50% degradation concentration (DC50) was above 200 nM.

As for `Cn1c(=O)n(C2CCC(=O)NC2=O)c2cccc(N3CC(OC[C@H]4CC[C@H](n5cc6cc(NC(=O)c7cccc(C(F)(F)F)c7)ccc6n5)CC4)C3)c21` (stereo partly shown) [I-251], the DC50 is above 200 nM.

Regarding `COc1cc2nc([C@H]3CC[C@H](CN4CC[C@@H](c5cccc6c5n(C)c(=O)n6C5CCC(=O)NC5=O)[C@H](F)C4)CC3)sc2cc1NC(=O)c1cncc(C#N)c1` (stereo partly shown) [I-277], the half-maximal degradation concentration (DC50) was above 200 nM.

For `COc1cn2nc([C@H]3CC[C@H](CN4CCC5(CCN(c6cccc7c6n(C)c(=O)n7C6CCC(=O)NC6=O)CC5)C(F)(F)C4)CC3)cc2cc1NC(=O)c1cncc(C#N)c1` (stereo partly shown) [I-282], the 50% degradation concentration (DC50) was above 200 nM.

`Cc1nn(C2CCC(=O)NC2=O)c2ccc(F)c(N3CC(CN4CCN(C[C@H]5CC[C@H](n6cc(NC(=O)c7cnn8ccc(N9C[C@H]%10C[C@@H]9CO%10)nc78)c(C(F)F)n6)CC5)CC4)C3)c12` (stereo partly shown) [I-287] returned a DC50 below 10 nM.

`Cn1c(=O)n(C2CCC(=O)NC2=O)c2cccc([C@@H]3CCN(C[C@H]4CC[C@H](c5nc6ccc(NC(=O)c7cncc(C(F)(F)F)n7)cc6o5)CC4)C[C@H]3F)c21` (stereo partly shown) [I-295] came in with a DC50 above 200 nM.

`COc1cn2nc([C@H]3CC[C@H](CN(C)[C@H]4CCN(c5cccc6c5n(C)c(=O)n6C5CCC(=O)NC5=O)C[C@@H]4F)CC3)cc2cc1NC(=O)c1cncc(C(F)(F)F)n1` (stereo partly shown) [I-301] displayed a DC50 below 10 nM.

`Cn1c(=O)n(C2CCC(=O)NC2=O)c2cccc([C@@H]3CCN(C[C@H]4CC[C@H](n5cc6cc(NC(=O)c7cnnc(C(F)(F)F)c7)ccc6n5)CC4)C[C@H]3F)c21` (stereo partly shown) [I-316] gave a half-maximal degradation concentration (DC50) above 200 nM.

As to `Cn1c(=O)n(C2CCC(=O)NC2=O)c2cccc(C#CCN3CCN(C[C@H]4CC[C@H](n5cc(NC(=O)c6cnn7ccc(N8C[C@H]9C[C@@H]8CO9)nc67)c(C(F)F)n5)CC4)[C@@H](C(F)(F)F)C3)c21` (stereo partly shown) [I-320], the DC50 was in the range of 10 to 100 nM.

The molecule `Cn1c(=O)n(C2CCC(=O)NC2=O)c2cccc(C#CCN3CCN(C[C@H]4CC[C@H](n5cc(NC(=O)c6cnn7ccc(N8C[C@H]9C[C@@H]8CO9)nc67)c(C(F)F)n5)CC4)[C@H](C(F)(F)F)C3)c21` (stereo partly shown) [I-345] yielded a DC50 of 10 to 100 nM.

`Cn1c(=O)n(C2CCC(=O)NC2=O)c2cccc(N3CCN(C[C@H]4CC[C@H](n5cc6cc(NC(=O)c7cncc(C(F)(F)F)n7)ccc6n5)CC4)CC3=O)c21` (stereo partly shown) [I-350] had a 50% degradation concentration (DC50) below 10 nM.

The molecule `Cn1c(=O)n(C2CCC(=O)NC2=O)c2cccc(N3CCC4(CCN(C[C@H]5CC[C@H](n6cc7cc(NC(=O)c8cncc(C(F)(F)F)n8)c(C(C)(C)O)cc7n6)CC5)CC4(F)F)CC3)c21` (stereo partly shown) [I-354] yielded a DC50 below 10 nM.

For the molecule `Cn1c(=O)n(C2CCC(=O)NC2=O)c2cccc(C3CCN(C[C@H]4CC[C@H](n5cc6cc(NC(=O)c7cncc(C(F)(F)F)n7)ccc6n5)CC4)C(=O)C3)c21` (stereo partly shown) [I-358], the DC50 was below 10 nM.

The molecule `Cn1c(=O)n(C2CCC(=O)NC2=O)c2cccc(N3CCN(C[C@H]4CC[C@H](n5cc6cc(NC(=O)c7cncc(C(F)(F)F)n7)ccc6n5)CC4)[C@H](C(F)(F)F)C3)c21` (stereo partly shown) [I-368] gave a DC50 of 10 to 100 nM.

Molecule `Cn1c(=O)n(C2CCC(=O)NC2=O)c2cccc(N3CCN(C[C@H]4CC[C@H](n5cc6cc(NC(=O)c7cncc(C(F)(F)F)n7)ccc6n5)CC4)[C@@H](C(F)(F)F)C3)c21` (stereo partly shown) [I-369] came in with a DC50 of 100 to 200 nM.

As to `CN1C(=O)CCC(n2c(=O)n(C)c3c([C@@H]4CCN(C[C@H]5CC[C@H](n6cc7cc(NC(=O)c8cncc(C(F)(F)F)n8)ccc7n6)CC5)CC4(F)F)cccc32)C1=O` (stereo partly shown) [I-378], the DC50 was above 200 nM.

`CN1C(=O)CCC(n2c(=O)n(C)c3c([C@@H]4CCN(C[C@H]5CC[C@H](n6cc7cc(NC(=O)c8cncc(C(F)(F)F)n8)ccc7n6)CC5)C[C@H]4F)cccc32)C1=O` (stereo partly shown) [I-382] gave a DC50 above 200 nM.

As to `COc1ccc2c(c1N1CCC3(CCN(C[C@H]4CC[C@H](n5cc6cc(NC(=O)c7cncc(C#N)c7)c(C(C)(C)O)cc6n5)CC4)CC3(F)F)CC1)n(C)c(=O)n2C1CCC(=O)NC1=O` (stereo partly shown) [I-397], the DC50 was below 10 nM.

With `COc1cc(C(=O)Nc2ccc3nn([C@H]4CC[C@H](CN5CCC6(CCN(c7cccc8c7n(C)c(=O)n8C7CCC(=O)NC7=O)CC6)C(F)(F)C5)CC4)cc3c2)nc(C(F)(F)F)c1` (stereo partly shown) [I-398], the DC50 is above 200 nM.

For the molecule `Cn1c(=O)n(C2CCC(=O)NC2=O)c2ccc(F)c(N3CCC4(CCN(C[C@H]5CC[C@H](n6cc7cc(NC(=O)c8cncc(C(F)(F)F)n8)ccc7n6)CC5)CC4(F)F)CC3)c21` (stereo partly shown) [I-399], the DC50 fell in the range of 10 to 100 nM.

Turning to `COc1cc(C(=O)Nc2ccc3nn([C@H]4CC[C@H](CN5CC[C@@H](c6cccc7c6n(C)c(=O)n7C6CCC(=O)NC6=O)C(F)(F)C5)CC4)cc3c2)nc(C(F)(F)F)c1` (stereo partly shown) [I-401], the DC50 was above 200 nM.

The molecule `Cc1cc(C(=O)Nc2ccc3nn([C@H]4CC[C@H](CN5CC[C@@H](c6cccc7c6n(C)c(=O)n7C6CCC(=O)NC6=O)C(F)(F)C5)CC4)cc3c2)nc(C(F)(F)F)c1` (stereo partly shown) [I-402] yielded a DC50 above 200 nM.

The molecule `Cc1cc(C(=O)Nc2ccc3nn([C@H]4CC[C@H](CN5CCC6(CCN(c7cccc8c7n(C)c(=O)n8C7CCC(=O)NC7=O)CC6)C(F)(F)C5)CC4)cc3c2)nc(C(F)(F)F)c1` (stereo partly shown) [I-403] displayed a DC50 above 200 nM.

As to `Cn1c(=O)n(C2CCC(=O)NC2=O)c2cccc([C@@H]3CCN(C[C@H]4CC[C@H](n5cc6cc(NC(=O)c7cncc(C#N)c7)c(C(C)(C)O)cc6n5)CC4)CC3(F)F)c21` (stereo partly shown) [I-416], the DC50 is below 10 nM.
